Like-named read-outs stand apart in the source and are kept apart here.
What was measured:
[1] = biological target: T1, α-glucosidase (α-Glu) (Saccharomyces cerevisiae, UniProt P53341); assay: biochemical; conditions: Cα-Glu = 0.10 U/mL, CpNPG = 2.08 mM, pH 6.8, 310 K; read-out: IC50 against α-Glu
T1 construct: purchased Shanghai Yuanye Bio-Technology Co., Ltd
Procedure: The stock solutions (2.0 mM) of AK/MS were prepared by dissolving them in dimethyl sulfoxide, respectively. […] The inhibitory activities of AK/MS against α-Glu were assessed in vitro according to the previous method with a slight modification. Firstly, 50 μL of α-Glu and different doses of inhibitors were mixed for 1 h at 310 K. Fifty microliter of pNPG (5.0 mM) was then put in to activate the reaction. After a 30 min incubation, the Na2CO3 solution (0.2 M, 100 μL) was added to stop the reaction. The absorbance of p-nitrophenol converted from pNPG was monitored at 405 nm on an Infinite® M200 PRO plate reader (Tecan, Durham, NC, USA).

[2] = biological target: T1, α-glucosidase (α-Glu); assay: Fluorescence quenching / binding of AK/MS to α-Glu; conditions: for Kq (quenching rate constant): Ksv/τ0; for Kd: read-out: Ka (binding constant) (converted); for fluorescence quenching mechanism: Stern–Volmer analysis; for ΔH^0 / ΔS^0: van't Hoff, 298–310 K; for decrease of synchronous fluorescence intensity of α-Glu: Δλ = 60 nm (Trp); for reduction of three-dimensional fluorescence intensity of Peak 1 of α-Glu: α-Glu 2.0 μM, inhibitor 13.0 μM
Procedure: The fluorescence spectrum of α-Glu was acquired in the spectral region of 300–450 nm on an F97 Pro spectrofluorometer (Lengguang Tech., Shanghai, China) with both excitation and emission slits of 10 nm, when excited at 280 nm. The solution of α-Glu (2.0 μM) was titrated by successively adding different amounts of AK (final concentrations of 4.0, 8.0, 12.0, 16.0, 20.0, 24.0 and 28.0 μM, respectively) or MS (final concentrations of 1.0, 3.0, 5.0, 7.0, 9.0, 11.0 and 13.0 μM, respectively) at 298, 304, and 310 K.
The synchronous fluorescence spectrum was recorded from 270 to 330 nm, when the interval of the emission and excitation wavelength (Δλ = λem − λex) constant was fixed at 15 and 60 nm, respectively.
The three-dimensional fluorescence spectra of α-Glu with or without AK/MS were measured at 298 K. The excitation wavelength range was from 200 to 360 nm, and the emission was collected from 270 to 330 nm, together with an increment of 10 nm. The final concentrations of α-Glu, AK, and MS were 2.0, 13.0, and 13.0 μM, respectively.
All the samples were thoroughly mixed and kept for 6 min before detection, and the inner-filter effect was eliminated to correct the obtained fluorescence data, referring to our previous report.
Thus, the relative mechanism was investigated through the Stern–Volmer equation:(6) F0/F=1+Ksv[Q]=1+kqτ0[Q] where F0 and F are the fluorescence intensities of α-Glu without and with inhibitors, respectively. Ksv, [Q], kq, and τ0 represent the Stern–Volmer quenching constant, the concentration of inhibitor, the biomolecule quenching rate constant, and the average lifetime of protein in the absence of inhibitors, respectively. Specifically, Ksv is determined by the plot of F0/F against [Q], τ0 is about 10^−8 s, and kq is equal to Ksv/τ0.
The binding constants (Ka) of the α-Glu-AK and α-Glu-MS systems were evaluated by the following equation:(7) logF0−F/F=nlogKa−nlog1/[Qt]−(F0−F)[Pt]/F0 where [Pt] and [Qt] represent the total concentrations of α-Glu and the inhibitor, respectively. n is the number of binding sites.
To better reveal the binding mechanism of AK/MS to α-Glu, the critical forces between them were also explored. Typically, the binding forces between proteins and ligands could be estimated by the calculation of the thermodynamic parameters using the following equations:(8) logKa=−ΔH^0/2.303RT+ΔS^0/2.303R (9) ΔG^0=ΔH^0−TΔS^0 where T represents the absolute temperature (in Kelvin), and R is the universal gas constant (8.314 J mol^−1 K^−1). ΔH^0 and ΔS^0 stand for the enthalpy change and entropy change, respectively, and they could be calculated by the slope and the y-axis intercept in the linearly fitted plot between lnKa and 1/T (Figure S4A,B). Then, the free energy change (ΔG^0) is obtained according to Equation (9).

[3] = biological target: T1, α-glucosidase (α-Glu); assay: biochemical; type: biochemical; conditions: for inhibition mode against α-Glu: L-B plots; for Ki: read-out: Ki (inhibition constant, binding to enzyme); for reversibility of inhibition: plots of v vs α-Glu concentration
Procedure: The same procedure in Section 2.2.1 was used to investigate the inhibition mechanisms of AK and MS against α-Glu. Using the Michaelis–Menten equation, inhibitors with various concentrations were utilized to evaluate the kinetic parameters (Km and Vmax). Moreover, the values of two kinetic constants Ki and Kis were determined using the Lineweaver–Burk (L-B) plots. The L-B equation could be expressed in a double reciprocal form for the mixed-type inhibition mechanism analysis:(1) 1/v=Km/Vmax1+I/Ki1/S+1/Vmax1+I/Kis
Km and Vmax denote the Michaelis–Menten constant and the maximum reaction velocity, respectively. [I] and [S] are the concentrations of the inhibitor and substrate, respectively. Ki and Kis represent the inhibition constants to bind with the enzyme and the enzyme–substrate complex, respectively. The secondary plots of the Y-intercept versus [I] are linearly fitted.

[4] = Solubility and light sensitivity (statement, no method)
[5] = test system: α-Glu; conditions: read-out: IC50 against α-Glu, cited from earlier work
[6] = mixed-type, L-B secondary plots

T1 sequence (P53341 whole entry): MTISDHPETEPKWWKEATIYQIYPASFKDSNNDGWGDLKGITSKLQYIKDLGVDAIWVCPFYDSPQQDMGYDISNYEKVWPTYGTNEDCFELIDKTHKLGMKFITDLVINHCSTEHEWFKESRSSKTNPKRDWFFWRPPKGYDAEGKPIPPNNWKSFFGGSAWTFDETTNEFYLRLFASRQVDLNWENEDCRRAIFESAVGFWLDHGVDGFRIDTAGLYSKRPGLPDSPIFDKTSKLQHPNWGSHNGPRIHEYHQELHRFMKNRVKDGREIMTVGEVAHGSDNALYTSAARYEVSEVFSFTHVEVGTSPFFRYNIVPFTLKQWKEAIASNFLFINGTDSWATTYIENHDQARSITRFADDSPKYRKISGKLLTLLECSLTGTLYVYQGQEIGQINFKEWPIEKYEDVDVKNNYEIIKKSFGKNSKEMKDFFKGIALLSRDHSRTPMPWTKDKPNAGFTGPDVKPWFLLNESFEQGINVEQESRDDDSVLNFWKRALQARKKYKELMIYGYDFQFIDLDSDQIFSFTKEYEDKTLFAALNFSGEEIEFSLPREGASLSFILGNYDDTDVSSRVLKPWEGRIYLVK

| Structure (SMILES) | IC50 [1] [µM] | Ksv (Stern–Volmer quenching constant) ([2]; 298 K) | Kq (quenching rate constant) ([2]; 298 K) | Kd ([2]; 298 K) [µM] | Ksv (Stern–Volmer quenching constant) ([2]; 304 K) | ΔG^0 ([2]; 304 K) [kcal/mol] | Kq (quenching rate constant) ([2]; 304 K) | Kd ([2]; 304 K) [µM] | Ksv (Stern–Volmer quenching constant) ([2]; 310 K) | ΔG^0 ([2]; 310 K) [kcal/mol] | Kq (quenching rate constant) ([2]; 310 K) | Kd ([2]; 310 K) [µM] | fluorescence quenching mechanism [2] | ΔH^0 [2] [kcal/mol] | ΔS^0 [2] [J mol^−1K^−1] | decrease of synchronous fluorescence intensity of α-Glu [2] [%] | reduction of three-dimensional fluorescence intensity of Peak 1 of α-Glu ([2]; 298 K) [%] | inhibition mode against α-Glu [3] | Ki [3, 6] [µM] | reversibility of inhibition [3] | other results |
| --- | --- | --- | --- | --- | --- | --- | --- | --- | --- | --- | --- | --- | --- | --- | --- | --- | --- | --- | --- | --- | --- |
| C/C=C/C1=CC2=C(CO1)C(=O)[C@]1(C)OC(=O)[C@H](C(=O)CCCCC)[C@H]1C2 [MS, monascin] | 302.6 ± 2.5 | 2.09 ± 0.02 10^4 M^−1 | 2.09 ± 0.02 10^12 M^−1s^−1 | 70.9 | 1.94 ± 0.04 10^4 M^−1 | -2.536 ± 0.0048 | 1.94 ± 0.04 10^12 M^−1s^−1 | 76.3 | 1.58 ± 0.03 10^4 M^−1 | -2.562 ± 0.0072 | 1.58 ± 0.03 10^12 M^−1s^−1 | 80.6 | static quenching | -1.18 ± 0.0239 | 18.68 ± 3.20 | 33.9 | 20.0 | mixed type | 298 ± 18.1 | reversible inhibitors | Vmax of α-Glu ([3]; inhibitor 100 μM): 1.85 ± 0.04 µM/min; Vmax of α-Glu ([3]; inhibitor 200 μM): 1.76 ± 0.08 µM/min; sensitivity to light [4]: sensitive to light; solubility [4]: poor |
| C/C=C/C1=CC2=C(CO1)C(=O)[C@]1(C)OC(=O)[C@H](C(=O)CCCCCCC)[C@H]1C2 [AK, ankaflavin] | 127 ± 2.5 | 2.23 ± 0.12 10^4 M^−1 | 2.23 ± 0.12 10^12 M^−1s^−1 | 58.1 | 2.08 ± 0.07 10^4 M^−1 | -2.488 ± 0.0813 | 2.08 ± 0.07 10^12 M^−1s^−1 | 63.3 | 1.91 ± 0.08 10^4 M^−1 | -2.519 ± 0.0526 | 1.91 ± 0.08 10^12 M^−1s^−1 | 69.4 | static quenching | -0.841 ± 0.0048 | 22.66 ± 0.84 | 59.4 | 24.9 | mixed type | 57.8 ± 5.89 | reversible inhibitors | Vmax of α-Glu ([3]; inhibitor 30 μM): 4.02 ± 0.07 µM/min; Vmax of α-Glu ([3]; inhibitor 40 μM): 3.86 ± 0.04 µM/min; Kis (inhibition constant, binding to enzyme–substrate complex) [3, 6]: 3.45 ± 0.06 µM |
| C[C@H]1O[C@H](O[C@H]2[C@H](O)[C@@H](O)[C@@H](O[C@H]3[C@H](O)[C@@H](O)C(O)O[C@@H]3CO)O[C@@H]2CO)[C@H](O)[C@@H](O)[C@@H]1N[C@H]1C=C(CO)[C@@H](O)[C@H](O)[C@H]1O (stereo partly shown) [acarbose] |  |  |  |  |  |  |  |  |  |  |  |  |  |  |  |  |  |  |  |  | IC50 ([5]; previous work): 376 ± 4.4 µM |
| O=c1cc(-c2ccc(O)cc2)oc2cc(O)cc(O)c12 [apigenin] |  |  |  |  |  |  |  |  |  |  |  |  |  |  |  |  |  |  |  |  | IC50 [5]: 10.5 ± 0.05 µM |

From article PMC11120408 (Foods, 2024)
